Results on one compound are retold here after PMC9448386, “Discovery of novel conjugates of quinoline and thiazolidinone urea as potential anti-colorectal cancer agent” (Journal of Enzyme Inhibition and Medicinal Chemistry, 2022).

The nature of series [1]: MTT assay, cytotoxicity against FHC cells. Format: cell-based. Conditions: FHC cells (normal colorectal mucosa epithelial cells); human normal colorectal mucosa epithelial cells; average of three separate determinations. On the procedure:
In order to investigate the cell selectivity index, the cytotoxicity of potent compounds against human normal colorectal mucosa epithelial cell FHC cells was determined.
Taking lead compound BC2021-104511-15i, Fruquintinib and Regorafenib as positive controls, the cytotoxic activity against HT-29, HCT-116, COLO-205 and FHC cell lines by MTT assay. Detailed operation could be found in our previous study.

Another series deals with T1, AXL (Homo sapiens, UniProt P30530).
T1 sequence (P30530 26-894): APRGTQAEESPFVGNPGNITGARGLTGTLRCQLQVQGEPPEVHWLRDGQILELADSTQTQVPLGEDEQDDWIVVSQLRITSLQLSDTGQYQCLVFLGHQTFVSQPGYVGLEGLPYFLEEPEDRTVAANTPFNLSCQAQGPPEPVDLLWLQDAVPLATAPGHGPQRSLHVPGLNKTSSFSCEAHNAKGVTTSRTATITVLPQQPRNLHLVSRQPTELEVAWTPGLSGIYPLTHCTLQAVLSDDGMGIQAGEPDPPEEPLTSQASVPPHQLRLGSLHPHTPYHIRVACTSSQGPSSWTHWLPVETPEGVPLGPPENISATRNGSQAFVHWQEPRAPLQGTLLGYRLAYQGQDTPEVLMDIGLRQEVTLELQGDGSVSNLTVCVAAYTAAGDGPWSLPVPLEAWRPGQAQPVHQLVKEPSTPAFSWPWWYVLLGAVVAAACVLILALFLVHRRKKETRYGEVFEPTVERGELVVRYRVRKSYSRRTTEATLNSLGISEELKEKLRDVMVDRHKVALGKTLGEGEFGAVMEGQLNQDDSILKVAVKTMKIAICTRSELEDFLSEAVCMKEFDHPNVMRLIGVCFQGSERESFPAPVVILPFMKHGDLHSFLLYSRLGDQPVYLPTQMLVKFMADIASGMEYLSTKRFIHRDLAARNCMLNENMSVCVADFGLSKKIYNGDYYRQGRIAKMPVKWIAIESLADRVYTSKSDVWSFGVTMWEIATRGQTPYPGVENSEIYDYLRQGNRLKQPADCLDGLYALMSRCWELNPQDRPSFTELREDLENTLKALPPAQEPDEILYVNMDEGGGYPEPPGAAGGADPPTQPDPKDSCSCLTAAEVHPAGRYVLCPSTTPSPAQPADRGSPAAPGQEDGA
The series can be described thus: Mobility shift assay, AXL. In kind it is biochemical. Conditions: mean of two independent experiments, SD shown. On the procedure:
(§1) Kinase inhibitory activity against HGFR, MST1R, ABL, PDGFRβ, AXL, FLT3, RET, c-Src, and VEGFR-2 was evaluated by the mobility shift assay. Detailed operation could be found in our previous research.

Another series addresses PDGFRβ (Homo sapiens, UniProt P09619). The series can be described thus: Mobility shift assay, PDGFRβ. Format: biochemical. The note with it: mean of two independent experiments, SD shown. On the procedure:
as §1

In a further series the target is c-Src (Homo sapiens, UniProt P12931). The series can be described thus: Mobility shift assay, c-Src. Format: biochemical. Conditions: mean of two independent experiments, SD shown. The method, then:
as §1

c-Src, sequence (P12931 whole entry): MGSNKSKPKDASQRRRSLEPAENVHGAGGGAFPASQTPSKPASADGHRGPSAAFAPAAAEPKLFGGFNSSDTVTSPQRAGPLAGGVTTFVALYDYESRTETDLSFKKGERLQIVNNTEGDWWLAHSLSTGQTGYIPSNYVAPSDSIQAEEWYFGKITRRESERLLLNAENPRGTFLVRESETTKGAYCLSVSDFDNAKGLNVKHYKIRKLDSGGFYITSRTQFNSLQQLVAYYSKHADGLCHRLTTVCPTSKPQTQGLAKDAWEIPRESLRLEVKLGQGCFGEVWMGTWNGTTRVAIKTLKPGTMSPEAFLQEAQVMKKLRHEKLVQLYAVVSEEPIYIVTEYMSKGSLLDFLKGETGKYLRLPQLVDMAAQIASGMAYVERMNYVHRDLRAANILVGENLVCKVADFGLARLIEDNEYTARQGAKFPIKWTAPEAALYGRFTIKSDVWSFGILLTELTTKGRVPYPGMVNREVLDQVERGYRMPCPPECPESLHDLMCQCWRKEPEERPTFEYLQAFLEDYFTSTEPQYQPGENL
PDGFRβ, sequence (P09619 33-1106): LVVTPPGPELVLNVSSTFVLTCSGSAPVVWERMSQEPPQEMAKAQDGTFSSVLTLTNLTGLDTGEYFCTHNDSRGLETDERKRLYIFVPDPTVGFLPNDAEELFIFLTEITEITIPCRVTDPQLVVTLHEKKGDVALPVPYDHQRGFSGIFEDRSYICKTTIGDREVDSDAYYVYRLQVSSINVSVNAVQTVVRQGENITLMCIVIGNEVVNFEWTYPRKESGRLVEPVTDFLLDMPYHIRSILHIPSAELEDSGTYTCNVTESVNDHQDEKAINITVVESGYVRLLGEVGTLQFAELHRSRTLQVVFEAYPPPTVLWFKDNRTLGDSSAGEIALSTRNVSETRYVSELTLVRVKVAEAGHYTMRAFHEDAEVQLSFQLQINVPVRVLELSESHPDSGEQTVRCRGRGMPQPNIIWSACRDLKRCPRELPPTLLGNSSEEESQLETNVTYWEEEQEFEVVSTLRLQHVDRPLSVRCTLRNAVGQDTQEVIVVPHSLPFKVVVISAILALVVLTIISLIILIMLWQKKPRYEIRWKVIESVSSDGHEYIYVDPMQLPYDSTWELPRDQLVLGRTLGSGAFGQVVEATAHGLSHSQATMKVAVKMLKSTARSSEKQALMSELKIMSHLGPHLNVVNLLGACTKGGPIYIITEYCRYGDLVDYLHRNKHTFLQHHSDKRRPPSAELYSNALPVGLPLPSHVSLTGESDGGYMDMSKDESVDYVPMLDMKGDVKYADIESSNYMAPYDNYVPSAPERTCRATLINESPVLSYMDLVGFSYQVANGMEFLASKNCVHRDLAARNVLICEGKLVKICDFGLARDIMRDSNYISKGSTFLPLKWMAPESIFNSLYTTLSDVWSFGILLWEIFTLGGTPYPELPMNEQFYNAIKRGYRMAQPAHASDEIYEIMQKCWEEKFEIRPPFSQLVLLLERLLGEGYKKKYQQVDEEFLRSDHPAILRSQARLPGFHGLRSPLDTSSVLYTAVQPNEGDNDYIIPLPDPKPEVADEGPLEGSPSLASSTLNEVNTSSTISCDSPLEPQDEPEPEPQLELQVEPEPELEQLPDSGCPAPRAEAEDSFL

Consider `COc1cc2c(Oc3ccc(NC(=O)NN4C(=O)CSC4c4c(F)cccc4F)cc3F)ccnc2cc1OC1CCN(CC(N)=O)CC1` (stereo not shown) [Compound 10a, 2–(4-((4–(4-(3–(2-(2,6-Difluorophenyl)-4-oxothiazolidin-3-yl)ureido)-2-fluorophenoxy)-6-methoxyquinolin-7-yl)oxy)piperidin-1-yl)acetamide], for which the IC50 in series [1] is above 10 µM; on AXL, 950 ± 86 nM; at PDGFRβ it was 1130 ± 120 nM; on c-Src, 420 ± 35 nM.

A word on the IC50: it is the midpoint of a concentration-inhibition curve.
